pIC50: −log10 of the molar value. The source made the active and inactive calls. No cut-off for these calls is given here.

Assay [1] in a line: (§1) Inhibition of Enterococcus faecalis recombinant type 1 methionine aminopeptidase expressed in Escherichia coli BL21 (DE3) using Met-pNA substrate.
The subject of assay [2] is Enterococcus faecalis. Kind of assay: Maximal inhibition of Enterococcus faecalis recombinant type 1 methionine aminopeptidase expressed in Escherichia coli BL21 (DE3) using Met-pNA substrate at 10 uM in presence of CoCl2.
In assay [3] the test system is Enterococcus faecalis. Kind of assay: Inhibition of Enterococcus faecalis recombinant type 1 methionine aminopeptidase expressed in Escherichia coli BL21 (DE3) using Met-pNA substrate by spectral study in presence of CoCl2.
Assay [4] has as its system Enterococcus faecalis. As to the kind of experiment: Inhibition of Enterococcus faecalis recombinant type 1 methionine aminopeptidase expressed in Escherichia coli BL21 (DE3) using Met-pNA substrate by spectral study in presence of Mn2+.
In assay [5] the test system is Enterococcus faecalis. Described as §1.

The term pIC50 denotes the IC50 on a negative log10 scale, so that one unit is a factor of ten. A word on the inhibition: it is the change of the read-out against control, counted positive when it falls. Consider `c1ccc(-c2ccccn2)nc1` [DIPYRIDYL], for which the pIC50 in assay [1] was 5.18. Also, the inhibition in the assay on Enterococcus faecalis [2] was 75%. Moreover, the inhibition result with Enterococcus faecalis [3] and in the assay with Enterococcus faecalis [4] was “Active” in each case.
With `c1cc(-c2ccncc2)ccn1`, the inhibition result in the assay with Enterococcus faecalis [5] was “inactive”.
The same measure, in the same setting: next, `O=C([O-])CC(O)(CC(=O)[O-])C(=O)[O-].[Na+].[Na+].[Na+]`: “inactive”.

The record behind these values is ChEMBL document CHEMBL3217429, “Structural studies of Enterococcus faecalis methionine aminopeptidase and design of microbe specific 2,2-bipyridine based inhibitors” (Medchemcomm, 2012).
